Patent publication EP0845034B1, “PEPTIDE HAVING PRONOCICEPTIVE PROPERTIES” (Euroscreen S.A., priority 1995, dated 1997)
Where a name gives a salt, the structure may show the parent alone.

Key:
mice [1] = experiment: antagonism of nociceptin-induced stimulation of horizontal locomotor activity; format: in vivo
mice [2] = conditions: mouse, in vivo

Compound: C=CCN1CC[C@]23c4c5ccc(O)c4O[C@H]2C(=O)CC[C@@]3(O)[C@H]1C5 [Naloxone, Naloxone hydrochloride]
- effect on motor-stimulant effect of nociceptin (mice [1]; 0.0-4.5 mg/kg s.c., 10 minutes before i.c.v. 100 ng nociceptin, first 10 minutes of testing): did not suppress

Compound: O=C(CCCN1CCC(O)(c2ccc(Cl)cc2)CC1)c1ccc(F)cc1 [haloperidol]
- effect on nociceptin-induced stimulation of locomotor activity (mice [1]; increasing doses of D2 dopamine receptor antagonist pretreatment): antagonized

Compound: CN1CC[C@]23c4c5ccc(O)c4O[C@H]2[C@@H](O)C=C[C@H]3[C@H]1C5 [morphin]
- number of explored holes (mice [2]): 24 ± 2
